Molecular target: T1, androgen receptor (AR) (Homo sapiens, UniProt P10275, T878A)
T1 sequence (P10275 1-920 T878A): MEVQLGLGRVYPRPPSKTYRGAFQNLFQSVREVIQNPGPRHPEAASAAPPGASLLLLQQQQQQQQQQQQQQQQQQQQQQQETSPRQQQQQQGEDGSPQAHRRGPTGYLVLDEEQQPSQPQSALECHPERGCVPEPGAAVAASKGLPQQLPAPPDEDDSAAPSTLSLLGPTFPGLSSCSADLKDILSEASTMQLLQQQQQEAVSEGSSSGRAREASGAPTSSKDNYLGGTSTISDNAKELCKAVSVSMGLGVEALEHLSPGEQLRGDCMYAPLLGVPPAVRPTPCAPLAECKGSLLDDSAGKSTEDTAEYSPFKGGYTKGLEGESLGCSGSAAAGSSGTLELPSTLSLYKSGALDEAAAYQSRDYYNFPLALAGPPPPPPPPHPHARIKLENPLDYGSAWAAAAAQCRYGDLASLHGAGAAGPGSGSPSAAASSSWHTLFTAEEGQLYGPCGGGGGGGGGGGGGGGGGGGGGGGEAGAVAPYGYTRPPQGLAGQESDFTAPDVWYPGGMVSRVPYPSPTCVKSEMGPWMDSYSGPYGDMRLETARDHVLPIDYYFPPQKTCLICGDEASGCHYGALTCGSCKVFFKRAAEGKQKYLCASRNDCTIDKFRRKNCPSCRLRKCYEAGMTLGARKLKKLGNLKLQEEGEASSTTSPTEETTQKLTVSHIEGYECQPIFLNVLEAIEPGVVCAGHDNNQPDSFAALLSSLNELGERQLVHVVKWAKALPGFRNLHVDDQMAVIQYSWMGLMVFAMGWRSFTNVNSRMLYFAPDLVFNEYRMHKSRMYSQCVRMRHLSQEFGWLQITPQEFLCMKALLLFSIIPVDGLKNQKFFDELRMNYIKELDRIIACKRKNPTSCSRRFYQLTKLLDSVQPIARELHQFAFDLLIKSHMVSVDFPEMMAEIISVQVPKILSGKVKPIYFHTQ
Type: cell-based
Conditions: not given

SMILES	fold increase in activity relative to amide 5b [fold]	fold less potent than enantiomer (1S,2R)-27
Cc1ccccc1N1CCN(CCSCc2c(C)noc2C)CC1 [compound 6]	1.3	
Cc1ccc(Cl)cc1N1CCN(C(=O)[C@@H]2C[C@@H]2c2ccc(F)cc2)CC1 [(1R,2S)-27]		ca. 10 fold

Same assay, conditions: C4-2-PSA-rl cells, 1 nM R1881

SMILES	activity in the PSA luciferase assay, in words
COc1ccccc1N1CCN(C(=O)CSCc2c(C)noc2C)CC1 [5h]	complete loss of activity
Cc1ccc(Cl)cc1N1CCN(C(=O)[C@H]2C[C@H]2c2ccc(F)cc2)CC1 [(1S,2R)-27]	substantially equipotent to the commercial AR antagonist, enzalutamide
Cc1ccccc1N1CCN(C(=O)[C@H]2C[C@@H]2c2ccccc2)CC1 (relative stereo) [compound 16]	essentially inactive
Cc1noc(C)c1CSCC(=O)N1CCN(c2ccccc2)CC1 [5a]	deleted activity
Cc1ccccc1N1CCN(C(=O)C[S+]([O-])Cc2c(C)noc2C)CC1 (stereo not shown) [compound 12]	inactive
Cc1ccccc1N1CCN(C(=O)C#Cc2ccccc2)CC1 [compound 10]	essentially inactive
Cc1ccccc1N1CCN(C(=O)NCSCc2c(C)noc2C)CC1 [20a]	inactive
Cc1ccccc1N1CCN(C(=O)CN(C)Cc2ccccc2)CC1 [18b]	abolished activity
Cc1ccccc1N1CCN(C(=O)/C=C/c2ccccc2)CC1 [compound 11]	essentially inactive
Cc1ccccc1N1CCC(OC(=O)NCSCc2c(C)noc2C)CC1 [20b]	inactive
Cc1cccc(N2CCN(C(=O)CSCc3c(C)noc3C)CC2)c1 [5c]	loss of activity
Cc1ccccc1N1CCN(C(=O)CSc2ccccc2)CC1 [compound 9]	abolished activity
Cc1ccccc1N1CCN(C(=O)COCc2c(C)noc2C)CC1 [18a]	abolished activity
Cc1ccc(N2CCN(C(=O)CSCc3c(C)noc3C)CC2)cc1 [5d]	loss of activity

From paper PMC4983742 (ACS Medicinal Chemistry Letters, 2016)
